# Measurements taken from patent US20260256814A1, “COMBINATION FOR THE TREATMENT OF INFECTIONS CAUSED BY MYCOPLASMA GENITALIUM” (GLAXOSMITHKLINE INTELLECTUAL PROPERTY DEVELOPMENT LIMITED, priority 2019, published 2026).
# Read-outs that look alike come from different tables or passages of the source.
# Key:
# Mycoplasma genitalium [1] = assay: Determination of minimum inhibitory concentration (MIC) by the Vero-cell culture method, growth by qPCR; type: cell-based
# Protocol: A collection of 54 Mycoplasma genitalium isolates originating from 51 patients were tested. Thirty-one strains were macrolide-resistant, with azithromycin MICs of ≥16 μg/mL and mutations in 23S rRNA gene positions A2058 (n=17) or A2059 (n=14, E. coli numbering). Eighteen strains were moxifloxacin-resistant (MIC≥1 μg/ml); 17 had dual resistance and were resistant to both moxifloxacin and azithromycin.
# Gepotidacin minimal inhibitory concentrations (MICs) were determined by the Vero-cell culture method for all 54 isolates and minimal bactericidal concentrations (MBCs) against 44 Mycoplasma genitalium strains. Gepotidacin, azithromycin, doxycycline, and moxifloxacin MICs were determined by inoculating 5000 genome equivalents (geq) as determined by quantitative PCR (qPCR) into a Vero-cell culture containing two-fold dilutions of test-antibiotic (Hamasuna et al., Antimicrob. Agents Chemother 49, 4993-4998 (2005)). After a three-week incubation period, cells and supernatant were harvested and growth of Mycoplasma genitalium was determined by qPCR. MIC was defined as the minimal concentration of the test-antibiotic causing a 99% inhibition of growth when compared to the mean of the control cultures grown without antibiotic.
# Mycoplasma genitalium [2] = assay: Determination of minimum bactericidal concentration (MBC), Vero-cell culture, qPCR; type: cell-based; settings: Mycoplasmoides genitalium, read-out: median MBC
# Protocol: After incubation for MIC determination, 15 μl of culture medium was transferred from the MIC plate to 135 μl fresh Vero-cell suspension, resulting in a 10-fold dilution of gepotidacin. Plates were sealed and incubated for four weeks and Mycoplasma genitalium growth was subsequently determined by qPCR. MBC was defined as the minimal concentration of the test-antibiotic causing a 99% inhibition of growth when compared to the mean of the control culture wells grown without antibiotic.
# Mycoplasma genitalium [3] = settings: alternative treatment of Mycoplasma genitalium infection; cited from earlier work
# [4] = Mycoplasmoides genitalium, all 54 isolates (36 moxifloxacin-susceptible and 18 moxifloxacin-resistant), Vero-cell culture, 99% inhibition of growth, read-out: MIC50
# [5] = Mycoplasmoides genitalium, all 54 isolates, Vero-cell culture, read-out: MIC90
# [6] = all 54 isolates, Vero-cell culture
# [7] = 18 moxifloxacin-resistant isolates
# [8] = 36 moxifloxacin-susceptible isolates
molecule,measurement,setting,value
"CC[C@H]1OC(=O)[C@H](C)[C@@H](O[C@H]2C[C@@](C)(OC)[C@@H](O)[C@H](C)O2)[C@H](C)[C@@H](O[C@@H]2O[C@H](C)C[C@H](N(C)C)[C@H]2O)[C@](C)(O)C[C@@H](C)CN(C)[C@H](C)[C@@H](O)[C@]1(C)O [Azithromycin, reference compound]",MIC,"Mycoplasma genitalium [1]; Mycoplasmoides genitalium, read-out: MICs, 31 macrolide-resistant strains (23S rRNA A2058 or A2059 mutations)",≥ 16 µg/mL
same,MIC50,Mycoplasma genitalium [1]; [4],16 µg/mL
same,MIC90,Mycoplasma genitalium [1]; [5],> 64 µg/mL
same,MIC90,Mycoplasma genitalium [1]; [6],>64 µg/mL
"C[C@H]1c2cccc(O)c2C(=O)C2=C(O)[C@]3(O)C(=O)C(C(N)=O)=C(O)[C@@H](N(C)C)[C@@H]3[C@@H](O)[C@@H]21 [Doxycycline, reference compound]",MIC50,Mycoplasma genitalium [1]; [4],0.5 µg/mL
same,MIC90,Mycoplasma genitalium [1]; [5],1 µg/mL
same,MIC range,Mycoplasma genitalium [1]; [6],0.06 to 2 µg/mL
"O=c1ccc2ncc(=O)n3c2n1C[C@H]3CN1CCC(NCc2cc3c(cn2)OCCC3)CC1 [Gepotidacin, (2R)-2-({4-[(3,4-dihydro-2/pyrano[2,3-c]pyridin-6-ylmethyl)amino]-1-piperidinyl}methyl)-1,2-dihydro-3H,8/2a,5,8a-triazaacenaphthylene-3,8-dione]",MIC90,Mycoplasma genitalium [1]; [7],0.25 µg/mL
same,MIC range,Mycoplasma genitalium [1]; [7],≤0.016 to 0.5 µg/mL
same,MIC90,Mycoplasma genitalium [1]; [8],0.25 µg/mL
same,MIC range,Mycoplasma genitalium [1]; [8],0.032 to 0.5 µg/mL
same,median MIC,Mycoplasma genitalium [1]; 44 isolates for which MBCs were available,0.064 µg/mL
same,"difference in MIC between fluoroquinolone-, dual-resistant and -susceptible isolates","Mycoplasma genitalium [1]; 54 isolates, p=0.2",no difference
same,difference in MIC between macrolide-resistant and -susceptible isolates,"Mycoplasma genitalium [1]; 54 isolates, p=0.24",no difference
same,MIC90,Mycoplasma genitalium [1]; Mycoplasmoides genitalium,0.25 µg/mL
same,MIC50,"Mycoplasma genitalium [1]; Mycoplasmoides genitalium, 18 moxifloxacin-resistant isolates",0.064 µg/mL
same,MIC50,"Mycoplasma genitalium [1]; Mycoplasmoides genitalium, 36 moxifloxacin-susceptible isolates",0.125 µg/mL
same,MIC,"Mycoplasma genitalium [1]; Mycoplasmoides genitalium, read-out: median MIC, 44 isolates for which MBCs were available",0.064 µg/mL
same,MIC,"Mycoplasma genitalium [1]; Mycoplasmoides genitalium, read-out: median MIC, all 54 isolates",0.125 µg/mL
same,MIC,"Mycoplasma genitalium [1]; Mycoplasmoides genitalium, read-out: modal MIC, all 54 isolates",0.125 µg/mL
same,MIC50,"Mycoplasma genitalium [1]; Mycoplasmoides genitalium, all 54 isolates (36 moxifloxacin-susceptible and 18 moxifloxacin-resistant), Vero-cell culture, 99% inhibition of growth",0.125 µg/mL
same,MIC range,Mycoplasma genitalium [1]; all 54 isolates,≤0.016 to 0.5 µg/mL
same,MIC90,Mycoplasma genitalium [1]; [6],0.25 µg/mL
same,MIC range,Mycoplasma genitalium [1]; [6],≤0.016 to 0.5 µg/mL
same,cross-resistance to the tested comparators,Mycoplasma genitalium [1]; all isolates incl. fluoroquinolone- and macrolide-resistant,no cross-resistance
same,MBC,Mycoplasma genitalium [2],0.125 µg/mL
"COc1c(N2C[C@@H]3CCCN[C@@H]3C2)c(F)cc2c(=O)c(C(=O)O)cn(C3CC3)c12 [Moxifloxacin, reference compound]",MIC,Mycoplasma genitalium [1]; Mycoplasmoides genitalium,≥ 1 µg/mL
same,MIC50,Mycoplasma genitalium [1]; Mycoplasmoides genitalium,0.25 µg/mL
same,MIC90,Mycoplasma genitalium [1]; Mycoplasmoides genitalium,4 µg/mL
same,MIC90,Mycoplasma genitalium [1]; [6],4 µg/mL
pristinamycin,effective,Mycoplasma genitalium [3],80%
